In patent publication US20020055463A1, “Pseudopeptide compounds having an inhibiting activity with respect to paths activated by proteins with active tyrosine kinase activity and pharmaceutical compositions containing same” (priority 1998, published 2002):
Where a SMILES comes first, the peptide text is derived from it. [ ]: non-standard residue; d: D form. pY = N[C@@H](Cc1ccc(OP(=O)(O)O)cc1)C(=O)O

Assays:
Grb2 [1] = target: T1, Grb2 (Homo sapiens, UniProt P62993); assay: ELISA competition test (Grb2/biotin-Aha-PSpYVNVQN displacement); format: binding; conditions: displacement of GST-Grb2 (40 ng/ml) from fixed peptide biotin-Aha-PSpYVNVQN (Shc tyrosine 317)
Description: Plates pre-treated with streptavidine (Boehringer) are incubated overnight at 4° C. with 100 μl of a solution of peptide biotin-Aha-PSpYVNVQN (Aha: 6-amino-hexanoic acid) (100 nM solution in TBS buffer Tris 100 mM, NaCl 50 mM, pH 7.5) per well. The non-specific binding is then blocked by incubating for 4 hours with the same buffer containing 3% of skimmed milk ([…]). The products to be tested are distributed among the wells at the desired dilution in the abovementioned buffer containing 3% of skimmed milk and 40 ng/ml of GST-Grb2 (100 μl per well). After one night's incubation, the plates are carefully rinsed 4 times using TBS-milk-0.05% tween 20, then incubated for 2 hours at 37° C., in the presence of 100 μl per well of anti-GST antibody (transduction, dilution 1/500 in TBS-milk-0.05% tween 20). The plates are then carefully rinsed 4 times using TBS-milk-0.05% tween 20, then incubated for 45 minutes at 37° C. in the presence of 100 µl per well of anti-mouse antibody coupled with peroxidase (Amersham, 1/1000 dilution in TBS-milk-0.05% tween 20). The plates are carefully rinsed using TBS-milk-0.05% tween 20, then incubated in the presence of 200 μl per well of TMB developing solution (Interchim), until a sufficient blue coloration has developed. The reaction is then stopped by adding 100 μl of 10% (VN) sulphuric acid per well. The reading is taken at 550 nm. The value read off for each well is then reduced by the control value of an equivalent well with no fixed peptide biotin-Aha-PSpYVNVQN then treated, like its homologue, with fixed peptide. The data is then processed using “Origin 40” software to obtain the 50 inhibitory concentrations.

Grb2 [2] = target: T1, Grb2; assay: Affinity for Grb2 measured by fluorescence; format: binding; conditions: 25° C., 50 mM HEPES, 1 mM DTT, pH 7.5, emission 345 nm, excitation 292 nm, read-out: Diss. const. fluo Kd
From the text: They are expressed therein as the dissociation constant Kd.

T1 sequence (P62993 whole entry, species assumed): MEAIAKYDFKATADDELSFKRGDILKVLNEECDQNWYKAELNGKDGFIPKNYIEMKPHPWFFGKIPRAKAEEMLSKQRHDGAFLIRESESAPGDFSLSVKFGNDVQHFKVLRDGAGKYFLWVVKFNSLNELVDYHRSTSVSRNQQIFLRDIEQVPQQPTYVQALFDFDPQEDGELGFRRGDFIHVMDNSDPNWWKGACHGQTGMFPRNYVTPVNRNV

SMILES	IC50 (Grb2 [1])	Kd (Grb2 [2])
CC(C)[C@H](NC(=O)[C@H](CC(N)=O)NC(=O)[C@@H](NC(=O)[C@H](Cc1ccc(OP(=O)(O)O)cc1)NC(=O)[C@H](CO)NC(=O)[C@@H]1CCCN1)C(C)C)C(=O)N[C@@H](CCC(N)=O)C(=O)N[C@@H](CC(N)=O)C(=O)O [PSpYVNVQN (Shc 317), reference compound] (H-PS[pY]VNVQN-OH)	71 nM	–
C[C@@](Cc1ccc(OP(=O)(O)O)cc1)(NC(=O)[C@H](Cc1ccc(CP(=O)(O)O)cc1)NC(=O)OCc1cccc(N)c1)C(=O)N[C@@H](CC(N)=O)C(N)=O [mAZ-Pmp-(αMe)pTyr-Asn-NH2, mAZ-Pmp-(α-Me) pTyr-Asn-NH2]	42 nM	–
CC(Cc1ccc(C(F)(F)P(=O)(O)O)cc1)(NC(=O)[C@H](Cc1ccc(OP(=O)(O)O)cc1)NC(=O)OCc1cccc(N)c1)C(=O)N[C@@H](CC(N)=O)C(N)=O (stereo partly drawn) [mAZ-pTyr-(αMe)F2Pmp-Asn-NH2, mAZ-pTyr-(D,L)(α-Me)F2Pmp-Asn-NH2]	64 nM	–
C[C@@](Cc1ccc(CC(=O)O)cc1)(NC(=O)[C@H](Cc1ccc(OP(=O)(O)O)cc1)NC(=O)OCc1cccc(N)c1)C(=O)N[C@@H](CC(N)=O)C(N)=O [mAZ-pTyr-(αMe)Phe(CH2—COOH)-Asn-NH2, mAZ-pTyr-(αMe)Phe(4-CH2CO2H)-Asn-NH2]	198 nM	60 nM
C[C@@](Cc1ccc(C(=O)O)cc1)(NC(=O)[C@H](Cc1ccc(OP(=O)(O)O)cc1)NC(=O)OCc1cccc(N)c1)C(=O)N[C@@H](CC(N)=O)C(N)=O [mAZ-pTyr-(αMe)Phe(COOH)-Asn-NH2, mAZ-pTyr-(αMe)Phe(4-CO2H)-Asn-NH2]	153 nM	45 nM
CC(Cc1ccc(CP(=O)(O)O)cc1)(NC(=O)[C@H](Cc1ccc(OP(=O)(O)O)cc1)NC(=O)OCc1cccc(N)c1)C(=O)N[C@@H](CC(N)=O)C(N)=O (stereo partly drawn) [mAZ-pTyr-(αMe)Pmp-Asn-NH2, mAZ-pTyr-(D,L)(αMe)Pmp-Asn-NH2]	266 nM	70 nM
CC(Cc1ccc(P(=O)(O)O)cc1)(NC(=O)[C@H](Cc1ccc(OP(=O)(O)O)cc1)NC(=O)OCc1cccc(N)c1)C(=O)N[C@@H](CC(N)=O)C(N)=O (stereo partly drawn) [mAZ-pTyr-(αMe)Ppp-Asn-NH2 (D or L)]	–	4.5 nM
C[C@@](Cc1ccc(O)cc1)(NC(=O)[C@H](Cc1ccc(OP(=O)(O)O)cc1)NC(=O)OCc1cccc(N)c1)C(=O)N[C@@H](CC(N)=O)C(N)=O [mAZ-pTyr-(αMe)Tyr-Asn-NH2, mAZ-pTyr-(α-Me)Tyr-Asn-NH2, reference compound]	1100 nM	250 nM
C[C@@](Cc1ccc(OP(=O)(O)O)cc1)(NC(=O)[C@H](Cc1ccc(OP(=O)(O)O)cc1)NC(=O)OCc1cccc(N)c1)C(=O)N[C@@H](CC(N)=O)C(N)=O [mAZ-pTyr-(αMe)pTyr-Asn-NH2, mAZ-pTyr-(α-Me)pTyr-Asn-NH2]	11 nM	3 nM
NC(=O)C[C@H](NC(=O)C1(NC(=O)[C@H](Cc2ccc(OP(=O)(O)O)cc2)NC(=O)OCc2cccc(N)c2)CCCCC1)C(N)=O [mAZ-pTyr-Acac-Asn-NH2, reference compound]	120 nM	30 nM
NC(=O)C[C@H](NC(=O)[C@H](Cc1ccc(O)cc1)NC(=O)[C@H](Cc1ccc(OP(=O)(O)O)cc1)NC(=O)OCc1cccc(N)c1)C(N)=O [mAZ-pTyr-Tyr-Asn-NH2, reference compound]	497 nM	155 nM
NC(=O)C[C@H](NC(=O)[C@H](Cc1ccc(OP(=O)(O)O)cc1)NC(=O)[C@H](Cc1ccc(OP(=O)(O)O)cc1)NC(=O)OCc1cccc(N)c1)C(N)=O [mAZ-pTyr-pTyr-Asn-NH2, reference compound]	235 nM	60 nM
